Key:
[1] = tested on: SCG neurons; test: Protection of SCG neurons from anti-NGF killing; format: cell-based, Sprague Dawley rats; settings: Rattus norvegicus, Neuron; anti-NGF antibody, 48 hours, Alamar Blue viability; read-out: IC(50), rescue from anti-NGF killing of SCG neurons
Experimental: Neurotrophins are critical to the growth, development, and survival of small fiber neurons of the PNS. […] In a typical experiment SCG neurons are cultured in the presence of NGF, which induces survival and neurite out-growth. After 5 days the NGF is removed by either the addition of anti-NGF polyclonal antibody (Sigma) or by repeated washings (4 times) with NGF free media, resulting in the apoptosis of up to 90% of the neurons after 48 hours, as measured by MTS staining. The addition of selected compounds of Formula I to the final cellular media provides upwards of 100% protection, at drug concentrations ranging from 1 to 50 μM (see Example 73).
SCG neurons were isolated from day 1 neonatal Sprague Dawley rats, plated at a cell density of 5,000 cells/well, and incubated in Biowhittaker Utraculture containing 1% Penstrep, 1% L-glutamine, 0.7% ARAC, 3% rat serum, and NGF (50 ng/mL, Calomone Labs), at 37° C., under a 5% CO2 atmosphere. After 4 days the cells were treated with anti-NGF antibody (Sigma). At this time compound was added and the cells were maintained serum and NGF free for 48 hours, at which time viability was assessed using Alamar Blue (Medicorp) staining.

[2] = tested on: SCG neurons; test: In vitro protection of SCG neurons from Taxol killing; format: cell-based, Sprague Dawley rats; settings: Rattus norvegicus, Neuron, read-out: IC50, rescue from Taxol killing of SCG neurons
Experimental: Taxol™ is regularly used in breast cancer chemotherapy. In cancer cells Taxol™ binds to the cyto-skeletal protein tubulin, thereby inhibiting normal microtubular assembly and inducing cellular apoptosis. Despite its potency as an anti-tumour agent, Taxol™ is also toxic to neurons, inducing dose limiting peripheral neuropathies. The addition of Taxol™ (100 ng/mL) to cultured SCG neurons induces the degradation or loss of upwards of 80% of the neurons. The addition of selected compounds of Formula I to the cellular media, concurrently with Taxol™, protects upwards of 100% of the neurons, at drug concentrations ranging from 1 to 50 μM (see Example 74).
(§1) SCG neurons were isolated from day 1 neonatal Sprague Dawley rats, plated at a cell density of 10,000 cells/well, and incubated in Biowhittaker Utraculture containing 1% Penstrep, 1% L-glutamine, 0.7% ARAC, 3% rat serum, and NGF (50 ng/mL, Calomone Labs) at 37° C., under a 5% CO2 atmosphere. After 5 days the cells were treated with compound and Taxol™ (50 ng/mL). Viability was assessed 48 hours later using MTS (Promega) staining.

[3] = Aqueous solubility in saline; format: physicochemical; settings: saline or isotonic, acid salt
Experimental: Select compounds bearing a basic moiety display good aqueous solubility as the corresponding acid salt. For example, compound 56.2HCl is soluble at >100 mg/mL in saline, allowing for the ready application of these compounds via multiple routes of administration either oral or percutaneous.

[4] = tested on: SCG neurons; test: In vitro protection of SCG neurons from cisplatin killing; format: cell-based, Sprague Dawley rats; settings: Rattus norvegicus, Neuron; cisplatin 3 μg/mL, 48 hours, MTS viability; read-out: IC50, protection of SCG neurons against cisplatin killing
Experimental: The mechanism of Cisplatin's anti-cancer action is not fully understood, but is believed to involve DNA binding and cleavage. Cisplatin is highly toxic to neurons. The addition of cisplatin (3 μg/mL) to cultured SCG neurons induces apoptosis of upwards of 80% of the neurons. The addition of selected compounds of Formula I to the cellular media, concurrently with cisplatin, protects upwards of 100% of the neurons, at drug concentrations ranging from 1 to 50 μM (see Example 75).
as §1, with “cisplatin (3 μg/mL).” for “Taxol™ (50 ng/mL).”

[5] = tested on: SK-N-AS; test: Sulforhodamine B assay, killing of SK-N-AS neuroblastoma cells; format: cell-based, Human
Experimental: (§2) Compound represented by Formula I were tested for anti-cancer properties using the sulforhodamine B assay. Human neuroblastomas SK-N-AS, and SH-SY5Y were plated in 96 well plates at a density of 15 000 cells/well. Daoy medulloblastoma cells were plated at a density of 2000 cells/well. Cells were cultured in RPMI supplemented with 5% fetal bovine serum and test compounds. After 72 hours of culture cell growth was assessed by sulforhodamine B. Cellular protein was precipitated and fixed with trichloroacetic acid and detected by incubation with sulforhodamine B. Bound dye solubilized in trizma base and was assessed by absorbance at 515 nm. Compound 28 caused either cell death or inhibited cellular proliferation of the SK-N-AS and SH-SY5Y neuroblastoma and daoy medulloblastoma cells with ED50s of 7, 5, and 2 µM, respectively.
(§3) Human neuroblastomas SK-N-AS, and SH-SY5Y were plated in 96 well plates at a density of 15 000 cells/well. Daoy medulloblastoma cells were plated at a density of 2000 cells/well. Cells were cultured in RPMI supplemented with 5% fetal bovine serum and test compound at various concentrations. After 72 hours of culture cell growth was assessed by sulforhodamine B. Cellular protein was precipitated and fixed with trichloroacetic acid and detected by incubation with sulforhodamine B. Bound dye solublized in trizma base and was assessed by absorbance at 515 nm.

[6] = tested on: Daoy medulloblastoma cells; test: Sulforhodamine B assay, killing of Daoy medulloblastoma cells; format: cell-based
Experimental: as §2, §3

[7] = tested on: SH-SY5Y; test: Sulforhodamine B assay, killing of SH-SY5Y neuroblastoma cells; format: cell-based, Human
Experimental: as §2, §3

[8] = Taxol 50 ng/mL, 48 hours, MTS viability

O=S(=O)(CCc1ccccc1)c1nn2cc(-c3ccc(Oc4ccc(Cl)cc4)cc3)nc2s1 [Compound 4]
IC50 [1]: 6000 nM
IC50 [2, 8]: 1000 nM

CN(C)CC(=O)NCCS(=O)(=O)c1nn2cc(-c3ccc(F)cc3)nc2s1 [Compound 48]
IC50 [2, 8]: 800 nM

O=S(=O)(Cc1ccccn1)c1nn2cc(-c3cccc(F)c3)nc2s1 [Compound 14]
IC50 [2, 8]: 3000 nM

CN1CCCN(CC[S+]([O-])c2nn3cc(-c4ccccc4)nc3s2)CC1 (stereo not drawn) [Compound 56.2HCl]
solubility [3]: > 100 mg/mL

[O-][S+](CCN1CCN(Cc2ccccc2)CC1)c1nn2c(-c3ccccc3)cnc2s1 (stereo not drawn) [Compound 66]
IC50 [2, 8]: 10000 nM

O=S(=O)(Cc1cccnc1)c1nn2cc(-c3ccccc3)nc2s1 [Compound 8]
IC50 [2, 8]: 800 nM

O=S(=O)(Cc1ccncc1)c1nn2cc(-c3ccc(Oc4ccc(Cl)cc4)cc3)nc2s1 [Compound 18]
IC50 [4]: 300 nM

O=S(=O)(Cc1ccccn1)c1nn2cc(-c3ccccc3)nc2s1 [Compound 6]
IC50 [2, 8]: 1500 nM

[O-][S+](CCN1CCCCC1)c1nn2cc(-c3ccccc3)nc2s1 (stereo not drawn) [Compound 61]
IC50 [2, 8]: 10000 nM

CC(=O)N1CCN(CC[S+]([O-])c2nn3c(-c4ccccc4)cnc3s2)CC1 (stereo not drawn) [Compound 65]
IC50 [2, 8]: 10000 nM

O=S(=O)(Cc1ccccn1)c1nn2cc(-c3ccc(Oc4ccc(Cl)cc4)cc3)nc2s1 [Compound 16]
IC50 [4]: 500 nM
IC50 [2, 8]: 500 nM

[O-][S+](Cc1ccccc1)c1nn2cc(-c3c(F)c(F)c(F)c(F)c3F)nc2s1 (stereo not drawn) [Compound 1]
IC50 [2, 8]: 1000 nM

CS(=O)(=O)NCCS(=O)(=O)c1nn2cc(-c3ccccc3)nc2s1 [Compound 45]
IC50 [4]: 1000 nM

CN(C)CC[S+]([O-])c1nn2cc(-c3cccc(F)c3)nc2s1 (stereo not drawn) [Compound 29]
IC50 [4]: 3000 nM
IC50 [2, 8]: 1000 nM

[O-][S+](CCc1ccccc1)c1nn2cc(-c3ccc(Oc4ccc(Cl)cc4)cc3)nc2s1 (stereo not drawn) [Compound 3]
IC50 [1]: 8000 nM
IC50 [2, 8]: 7000 nM

[O-][S+](CCN1CCOCC1)c1nn2cc(-c3ccc(F)cc3)nc2s1 (stereo not drawn) [Compound 28]
ED50, cell death or inhibited cellular proliferation ([5]; 72 hours, sulforhodamine B): 7000 nM
concentration at which the cell line is potently killed in vitro (as low as) ([5]; FIG. 1, sulforhodamine B): ≥ 5 µM
ED50, cell death or inhibited cellular proliferation ([6]; 72 hours, sulforhodamine B): 2000 nM
concentration at which the cell line is potently killed in vitro (as low as) ([6]; FIG. 1, sulforhodamine B): ≥ 5 µM
ED50, cell death or inhibited cellular proliferation ([7]; 72 hours, sulforhodamine B): 5 µM
concentration at which the cell line is potently killed in vitro (as low as) ([7]; FIG. 1, sulforhodamine B): ≥ 5 µM
IC50 [4]: 1000 nM
IC50 [2, 8]: 5000 nM

O=S(=O)(Cc1ccncc1)c1nn2cc(-c3ccccc3)nc2s1 [Compound 10]
IC50 [2, 8]: 800 nM

[O-][S+](CCc1ccccn1)c1nn2cc(-c3ccc(F)cc3)nc2s1 (stereo not drawn) [Compound 19]
IC50 [4]: 800 nM
IC50 [2, 8]: 6000 nM

[O-][S+](CCN1CCNCC1)c1nn2cc(-c3ccccc3)nc2s1 (stereo not drawn) [Compound 58]
IC50 [2, 8]: 1000 nM

[O-][S+](Cc1ccncc1)c1nn2cc(-c3ccccc3)nc2s1 (stereo not drawn) [Compound 9]
IC50 [2, 8]: 800 nM

CC[S+]([O-])c1nn2cc(-c3ccccn3)nc2s1 (stereo not drawn) [Compound 37]
IC50 [2, 8]: 2000 nM

CN1CCN(CCC[S+]([O-])c2nn3cc(-c4ccccc4)nc3s2)CC1 (stereo not drawn) [Compound 69]
IC50 [4]: 1000 nM
IC50 [2, 8]: 1000 nM

CC[S+]([O-])c1nn2cc(-c3ccc(OCCO)cc3)nc2s1 (stereo not drawn) [Compound 32]
IC50 [2, 8]: 5000 nM

CC[S+]([O-])c1nn2cc(-c3cnccn3)nc2s1 (stereo not drawn) [Compound 40]
IC50 [2, 8]: 3000 nM

CCS(=O)(=O)c1nn2cc(-c3ccc(OCCO)cc3)nc2s1 [Compound 33]
IC50 [2, 8]: 1000 nM

[O-][S+](Cc1ccncc1)c1nn2cc(-c3ccc(N4CCOCC4)cc3)nc2s1 (stereo not drawn) [Compound 30]
IC50 [2, 8]: > 10000 nM

CN1CCN(CC[S+]([O-])c2nn3cc(-c4ccc5c(c4)OCCCO5)nc3s2)CC1 (stereo not drawn) [Compound 71]
IC50 [2, 8]: 3000 nM

[O-][S+](Cc1ccccn1)c1nn2cc(-c3cccc(F)c3)nc2s1 (stereo not drawn) [Compound 13]
IC50 [2, 8]: 1000 nM

CN1CCCN(CC[S+]([O-])c2nn3cc(-c4ccccc4)nc3s2)CC1 (stereo not drawn) [Compound 56]
IC50 [2, 8]: 1000 nM

[O-][S+](CCN1CCC(Cc2ccccc2)CC1)c1nn2cc(-c3ccccc3)nc2s1 (stereo not drawn) [Compound 63]
IC50 ([2]; 48 h): 10000 nM

CC(C)(C)OC(=O)NCC[S+]([O-])c1nn2cc(-c3ccccn3)nc2s1 (stereo not drawn) [Compound 35]
IC50 [2, 8]: 2000 nM

[O-][S+](CCN1CCC(O)CC1)c1nn2cc(-c3ccccc3)nc2s1 (stereo not drawn) [Compound 62]
IC50 [2, 8]: 10000 nM

CN1CCN(CC[S+]([O-])c2nn3cc(-c4ccccc4)nc3s2)CC1 (stereo not drawn) [Compound 54]
IC50 [2, 8]: 3000 nM

CC(=O)N1CCN(CC[S+]([O-])c2nn3cc(-c4ccccc4)nc3s2)CC1 (stereo not drawn) [Compound 60]
IC50 [2, 8]: 1000 nM

CN1CCN(CC[S+]([O-])c2nn3cc(-c4ccc(F)cc4)nc3s2)CC1 (stereo not drawn) [Compound 70]
IC50 [4]: 1000 nM
IC50 [2, 8]: 1000 nM

O=S(=O)(Cc1ccccc1)c1nn2cc(-c3c(F)c(F)c(F)c(F)c3F)nc2s1 [Compound 2]
IC50 [4]: 800 nM

[O-][S+](Cc1ccncc1)c1nn2cc(-c3ccc(Oc4ccc(Cl)cc4)cc3)nc2s1 (stereo not drawn) [Compound 17]
IC50 [4]: 300 nM
IC50 [2, 8]: 2000 nM

NCCS(=O)(=O)c1nn2cc(-c3ccccc3)nc2s1 [Compound 44]
IC50 [4]: 2000 nM
IC50 [2, 8]: 2000 nM

CC(=O)Nc1ccc(S(=O)(=O)c2nn3cc(-c4ccccn4)nc3s2)cc1 [Compound 52]
IC50 [2, 8]: 1000 nM

[O-][S+](Cc1ccccn1)c1nn2cc(-c3ccccc3)nc2s1 (stereo not drawn) [Compound 5]
IC50 [2, 8]: 1000 nM

[O-][S+](Cc1ccccn1)c1nn2cc(-c3ccc(Oc4ccc(Cl)cc4)cc3)nc2s1 (stereo not drawn) [Compound 15]
IC50 [2, 8]: 1000 nM
